From the NIST ThermoML archive (doi:10.1021/acs.jced.6b01013)
± gives the expanded uncertainty stated by the source.

Assay: xn = mol fraction of the nth substance listed
Details: 100 kPa, Liquid, Pycnometric method

CCNCC.Cl [diethylammonium chloride] + COc1ccccc1O
mass density (293.15 K, x2 = 0.75): 1095.4 ± 4 kg/m3 | mass density (293.15 K, x2 = 0.8): 1102.4 ± 4 kg/m3 | mass density (293.15 K, x2 = 0.83): 1106.1 ± 4 kg/m3 | mass density (303.15 K, x2 = 0.75): 1093.1 ± 4 kg/m3 | mass density (303.15 K, x2 = 0.8): 1098.3 ± 4 kg/m3 | mass density (303.15 K, x2 = 0.83): 1103.5 ± 4 kg/m3 | mass density (313.15 K, x2 = 0.75): 1083.7 ± 4 kg/m3 | mass density (313.15 K, x2 = 0.8): 1089.8 ± 4 kg/m3 | mass density (313.15 K, x2 = 0.83): 1093.7 ± 4 kg/m3 | mass density (323.15 K, x2 = 0.75): 1075.8 ± 4.1 kg/m3 | mass density (323.15 K, x2 = 0.8): 1084.1 ± 4 kg/m3 | mass density (323.15 K, x2 = 0.83): 1083.5 ± 4 kg/m3

COc1ccccc1O [2-methoxyphenol] + C[N+](C)(C)CCO.[Cl-]
mass density (293.15 K, x1 = 0.75): 1153.3 ± 4 kg/m3 | mass density (293.15 K, x1 = 0.8): 1155.6 ± 4 kg/m3 | mass density (293.15 K, x1 = 0.83): 1149.7 ± 4.1 kg/m3 | mass density (303.15 K, x1 = 0.75): 1147.5 ± 4 kg/m3 | mass density (303.15 K, x1 = 0.8): 1147.7 ± 4 kg/m3 | mass density (303.15 K, x1 = 0.83): 1143.4 ± 4.1 kg/m3 | mass density (313.15 K, x1 = 0.75): 1141.2 ± 4 kg/m3 | mass density (313.15 K, x1 = 0.8): 1140.6 ± 4 kg/m3 | mass density (313.15 K, x1 = 0.83): 1136.2 ± 4.1 kg/m3 | mass density (323.15 K, x1 = 0.75): 1134.1 ± 4.1 kg/m3 | mass density (323.15 K, x1 = 0.8): 1132.4 ± 4.1 kg/m3 | mass density (323.15 K, x1 = 0.83): 1128 ± 4.1 kg/m3

CC(=O)OCC[N+](C)(C)C.[Cl-] [acetylcholine chloride] + COc1ccccc1O
mass density (293.15 K, x2 = 0.75): 1149.6 ± 4 kg/m3 | mass density (293.15 K, x2 = 0.8): 1149.3 ± 4 kg/m3 | mass density (293.15 K, x2 = 0.83): 1152.7 ± 4 kg/m3 | mass density (303.15 K, x2 = 0.75): 1146.1 ± 4 kg/m3 | mass density (303.15 K, x2 = 0.8): 1144.8 ± 4 kg/m3 | mass density (303.15 K, x2 = 0.83): 1148.1 ± 4 kg/m3 | mass density (313.15 K, x2 = 0.75): 1139.8 ± 4 kg/m3 | mass density (313.15 K, x2 = 0.8): 1138.1 ± 4 kg/m3 | mass density (313.15 K, x2 = 0.83): 1142.5 ± 4 kg/m3 | mass density (323.15 K, x2 = 0.75): 1133.8 ± 4 kg/m3 | mass density (323.15 K, x2 = 0.8): 1131.7 ± 4 kg/m3 | mass density (323.15 K, x2 = 0.83): 1135.1 ± 4 kg/m3
